Entries after “also recorded” stand apart in the source; their conditions may differ.
Legend:
cannabinoid receptors = assay: GTPγS binding in end stage spinal cord homogenates from G93A-SOD1 mice, separated by gender; type: biochemical, mouse; details: for 2-AG stimulated G-protein activation remaining on co-incubation with CB2 ligand / HU-210 stimulated G-protein activation remaining on co-incubation with CB2 ligand: ligand 1 μM
Method: (§1) [^35S]GTPγS binding assays were performed as described previously (Prather et al. 2000a) in a buffer containing 20 mM Hepes, 100 mM NaCl, and 10 mM MgCl2 at pH 7.4. Each binding reaction contained 10 μg of spinal cord membrane protein, the presence or absence of cannabinoid ligands (see following), plus 0.1 nM [^35S]GTPγS (1250 Ci/mmol, Perkin Elmer Life and Analytical Sciences) and […] of GDP to suppress basal G-protein activation. Reactions were incubated for 2 hrs at 30 °C. Non-specific binding was defined by binding observed in the presence of 10 μM of non-radioactive GTPγS. The reaction was terminated by rapid vacuum filtration through glass fiber filters followed by two washes with ice-cold assay buffer. 4 mL of scintiverse® (Fisher Scientific) was added to the filters and radioactivity quantified by scintillation counting.
Harvested spinal cords from the vehicle treated control groups at the end-stage of their disease were separated by gender and used to conduct GTP7S binding experiments, which measure the capability of a ligand to promote or suppress G-protein activation.
It was next determined if the selective CB2 ligands antagonize G-protein activation produced by an endocannabinoid such as 2-AG as well.

CB1 and CB2 receptors = assay: [35S]GTPγS binding with selective agonists in mouse spinal cord membranes; type: biochemical; details: data not shown
Method: as §1
We initially attempted to compare CB 1 and CB2 receptor activation of G-proteins between WT-OE and G93A spinal cord membranes by conducting [^35S]GTPγS binding assays in the presence of selective agonists.

CB1 receptors = details: cited from earlier work; for Ki: literature value, read-out: Ki at CB1 receptors
CB2 receptors = CB2 receptors (Homo sapiens, UniProt P34972); details: cited from earlier work
CB2 receptors, sequence (P34972 whole entry): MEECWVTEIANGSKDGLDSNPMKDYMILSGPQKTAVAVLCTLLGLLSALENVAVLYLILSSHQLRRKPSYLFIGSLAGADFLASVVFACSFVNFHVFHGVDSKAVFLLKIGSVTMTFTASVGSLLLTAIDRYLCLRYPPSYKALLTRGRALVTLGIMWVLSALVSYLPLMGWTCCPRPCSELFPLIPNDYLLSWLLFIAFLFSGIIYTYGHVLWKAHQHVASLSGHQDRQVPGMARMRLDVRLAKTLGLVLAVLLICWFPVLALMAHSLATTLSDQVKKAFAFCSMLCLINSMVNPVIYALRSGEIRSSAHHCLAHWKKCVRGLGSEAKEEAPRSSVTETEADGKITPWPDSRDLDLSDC

G93A-SOD1 mice [1] = assay: Motor function test (clinging to perpendicular wire mesh screen for 60 seconds) in G93A mice; type: in vivo, mouse; details: for improvement in motor function versus vehicle, females: female G93A mice; for improvement in motor function versus vehicle, females / improvement in motor function versus vehicle, males: time to loss of ability to cling 60 seconds; for interval between mean loss of motor function and death, females: female mice, vehicle 19.0 days; for improvement in motor function versus vehicle, males: male G93A mice; for interval between mean loss of motor function and death, males: male mice, vehicle 20.5 days
Method: Beginning on the first day of observing symptoms, mice were tested for motor function biweekly until sacrifice. Motor function testing was initiated by gently placing animals on a horizontal wire mesh screen. The screen was slowly rotated to be perpendicular to the ground (90°). The duration that mice were able to hang onto the perpendicular wire mesh up to a maximum of 120 seconds was recorded. Because vehicle treated mice on average lost the ability to cling to the wire mesh for 60 seconds in the middle of their survival curve, this “all or none” response was utilized to compare motor function across all treatment groups. Kaplan-Meier time-to-event statistics were employed to analyze the data. The event was defined as the number of days after symptom onset that each individual animal was no longer able to cling to the wire mesh screen for 60 seconds.
Testing twice a week for the duration of the study provided a quantifiable decline during disease progression. Mice were placed on a horizontal wire mesh screen that was gently inverted to 90°. Kaplan-Meier time-to-event curves were used to analyze the data. The event was defined as the day each animal was no longer able to cling to the perpendicular screen for 60 seconds. […] The disparity between male and female motor function was paralleled by the interval between survival for the genders. Male mice survived an average of 39.6±2.0 (FIG. 6a) days past the onset of symptoms, while females lived 9 days longer than males (p<0.0018*, FIG. 6b). For males and females, loss of motor function preceded death by 20.5 (p<0.0002***) and 19.0 days (p<0.0028**), respectively.

G93A-SOD1 mice [2] = assay: Survival of G93A mice, daily i.p. treatment initiated at symptom onset; type: in vivo, mouse; details: for survival improvement versus vehicle, females: female G93A mice; for survival improvement versus vehicle, females / survival improvement versus vehicle, males: 3 mg/kg for AM-1241 and AM630, JTE-907 dose not given; for survival improvement versus vehicle, males: male G93A mice
Excerpt: Hemizygous transgenic male mice with the G93A mutation of the human SOD1 gene (G1H/1) mutation (B6SJL-TgN (SOD1-G93A) 1 Gur) were obtained from Jackson Laboratories and were bred locally with female B6SJL mice (Jackson Laboratory), according to the protocol obtained from the vendor. To decrease the inherent variability in disease onset and survival with these mice, littermate transgenic males (rather than random males from several different litters) were selected to sire subsequent generations of mice.
Determination of symptom onset, randomization and drug treatment of G93A mice. Symptom onset was assessed by blinded observation of changes in hind limb gait; these changes are related to the mouse's inability to support its weight on its hind limbs. At onset, mice initially place their weight on the toes and then quickly fall to full foot placement (as opposed to healthy mice which walk and run on the hind toes); this “toe-to-heel” walking pattern produces an asymmetric gait between hind and fore limbs and a characteristic “wobbling” gait. Mouse groups were randomized based on symptom onset and alternately placed in control and treated groups, e.g., the first mouse to develop hind limb weakness was placed in the control group, the second was injected with test compound and placed in the treatment group, and so on. […] By definition, the onset administration paradigm employed was focused on what we term the “survival interval”—namely the time from onset to end-stage sacrifice.
Mice were sacrificed when any of the following criteria were met: (1) inability to right themselves within 30 seconds when placed on their sides; (2) inability to eat or drink, or move toward food and water placed in low-rimmed dishes on cage floor; (3) loss of more than 10% of total body weight in 24 hours; (4) gross loss of grooming behavior; or (5) labored breathing. Criteria for death were confirmed by a second investigator who is blinded to the group identity of each mouse. The age of symptom onset was subtracted from the age at death for each mouse, and a mean survival interval was calculated for each group. By calculating the ratio of the survival interval of treated groups to the survival interval of untreated littermate controls, a X-fold increase in survival was readily determined.
The effect of chronic administration of cannabinoids on the survival of G93A mice was next examined (FIG. 4). […] The number of days between symptom onset and animal sacrifice was measured (e.g., survival interval). In humans, this is analogous to the time between diagnosis of ALS and death, ranging from 2-5 years.

[3] = Water solubility and dissolution in vehicles; details: for stable dissolution in tested vehicles: ethanol/water, glycerol, polyethylene glycol, high purity olive oil tested
CB1/CB2 receptors [4] = assay: [35S]GTPγS binding, selective antagonism of HU-210, G93A spinal cord membranes; type: biochemical, mouse
CB1/CB2 receptors [5] = assay: [35S]GTPγS binding, selective antagonism of HU-210, WT-OE spinal cord membranes; type: biochemical, mouse
[6] = G93A mice, i.p. daily from onset, 3.0 mg/kg
[7] = daily injections initiated at symptom onset
[8] = female homogenates, HU-210 100 nM
[9] = male homogenates, HU-210 100 nM
[10] = WT-OE spinal cord membranes, HU-210 100 nM, antagonist 3 μM

## CCCCCC=CCC=CCC=CCC=CCCCC(=O)OC(CO)CO [2-AG, (5Z,8Z,11Z, 14Z)-5,8,11,14-Eicosatetraenoic acid, 2-hydroxy-1-(hydroxymethyl) ethyl ester]
Cannabinoid receptors; female spinal cord homogenate, 2-AG 3 μM
  [35S]GTPγS binding to G-proteins produced by agonist: 29.93±3.3 fmole/mg protein
Cannabinoid receptors; female transgenic spinal cord
  Emax of G-protein activation: 17.81±1.89
Cannabinoid receptors; male spinal cord homogenate, 2-AG 3 μM
  [35S]GTPγS binding to G-proteins produced by agonist: 31.30±1.7 fmole/mg protein
Cannabinoid receptors; male transgenic spinal cord
  Emax of G-protein activation: 23.21±5.82

## CCCCC/C=C\C/C=C\C/C=C\C/C=C\CCCC(=O)NCCCl [ACEA, (all Z)-N-(2-cycloethyl)-5,8,11,14-eicosatetraenamide]
CB1 and CB2 receptors
  G-protein activation by selective agonist: failed attempts to demonstrate consistent, measurable G-protein activation; also recorded: unable to demonstrate consistent, measurable G-protein activation

## Cc1c(C(=O)NN2CCCCC2)nn(-c2ccc(Cl)cc2Cl)c1-c1ccc(I)cc1 [AM-251, N-(Piperidin-1-yl)-5-(4-iodophenyl)-1-(2,4-dichlorophenyl)-4-methyl-1H-pyrazole-3-carboxamide]
CB1 receptors
  Ki: ~7 nM
CB2 receptors; Gatley et al. 1997
  affinity at CB2 receptors weaker than at CB1: over 300 fold

## COc1ccc(C(=O)c2c(C)n(CCN3CCOCC3)c3cc(I)ccc23)cc1 [AM-630]
CB1 receptors; Hosohata et al. 1997
  affinity for CB1 receptors less than for CB2: more than 165 fold
G93A-SOD1 mice [1]
  improvement in motor function versus vehicle, females: 48%
  interval between mean loss of motor function and death, females: 8.7 days
  improvement in motor function versus vehicle, males: 64%
  interval between mean loss of motor function and death, males: 18.9 days
G93A-SOD1 mice [2]; [6]
  Survival Interval Ratio (SIR): 2.30
  Total Life-Span Ratio (TLR): 1.27
G93A-SOD1 mice [2]; G93A-SOD1 mice
  survival compared with AM-1241 treated mice: survived twice as long as those mice treated with AM-1241
G93A-SOD1 mice [2]; [7]
  extension of total life-span versus controls: 27%
  living longer after symptom onset than controls (survival interval increase): 130%
G93A-SOD1 mice [2]
  survival improvement versus vehicle, females: 8%
  survival improvement versus vehicle, males: 27%
G93A-SOD1 mice [2]; treatment initiated at symptom onset
  effect on survival of G93A-SOD1 mice: pronounced increase in survival
Cannabinoid receptors; female homogenate, 2-AG 3 μM
  2-AG stimulated G-protein activation remaining on co-incubation with CB2 ligand: 8.49±3.7 fmole/mg protein
Cannabinoid receptors; [8]
  HU-210 stimulated G-protein activation remaining on co-incubation with CB2 ligand: 17.76±3.3 fmole/mg protein
Cannabinoid receptors; male homogenate, 2-AG 3 μM
  2-AG stimulated G-protein activation remaining on co-incubation with CB2 ligand: 6.66±3.9 fmole/mg protein
Cannabinoid receptors; [9]
  HU-210 stimulated G-protein activation remaining on co-incubation with CB2 ligand: 21.02±5.6 fmole/mg protein
[3]
  water solubility: very poor water solubility
  stable dissolution in tested vehicles: achieved only with olive oil
CB2 receptors; literature value, read-out: Ki at CB2 receptors
  Ki: ~20 nM

## CCCCCCC(C)(C)c1cc(O)c2c(c1)OC(C)(C)[C@@H]1CC=C(CO)C[C@@H]21 [HU-210, (−)-11-Hydroxy-delta(8)-tetrahydrocannabinol-dimethylheptyl]
CB1 receptors
  Ki: ~0.5 nM
CB1/CB2 receptors [4]; G93A spinal cord membranes, HU-210 100 nM
  [35S]GTPγS binding to G-proteins produced by agonist: 57.4±4.4 fmole/mg protein
Cannabinoid receptors; female spinal cord homogenates, HU-210 100 nM
  [35S]GTPγS binding to G-proteins produced by agonist: 40.59±8.5 fmole/mg protein
Cannabinoid receptors; male spinal cord homogenates, HU-210 100 nM
  [35S]GTPγS binding to G-proteins produced by agonist: 35.51±5.6 fmole/mg protein
CB1/CB2 receptors [5]; WT-OE spinal cord membranes, HU-210 100 nM
  [35S]GTPγS binding to G-proteins produced by agonist: 30.7±6.2 fmole/mg protein

## CCCCCOc1c(OC)ccc2cc(C(=O)NCc3ccc4c(c3)OCO4)c(=O)[nH]c12 [JTE-907]
G93A-SOD1 mice [1]
  improvement in motor function versus vehicle, females: 92%
  interval between mean loss of motor function and death, females: 4 days
  improvement in motor function versus vehicle, males: 61%
  interval between mean loss of motor function and death, males: 10.7 days
G93A-SOD1 mice [2]
  survival improvement versus vehicle, females: 25%
  survival improvement versus vehicle, males: did not live significantly longer
Cannabinoid receptors; female homogenate
  reduction of HU-210 induced G-protein activation (CB2 receptor antagonism): 31.34 fmole/mg protein
Cannabinoid receptors; female homogenate, 2-AG 3 μM
  2-AG stimulated G-protein activation remaining on co-incubation with CB2 ligand: 5.96±0.97 fmole/mg protein
Cannabinoid receptors; [8]
  HU-210 stimulated G-protein activation remaining on co-incubation with CB2 ligand: 9.25±1.2 fmole/mg protein
Cannabinoid receptors; male homogenate
  reduction of HU-210 induced G-protein activation (CB2 receptor antagonism): 12.31 fmole/mg protein
Cannabinoid receptors; male homogenate, 2-AG 3 μM
  2-AG stimulated G-protein activation remaining on co-incubation with CB2 ligand: 18.14±2.1 fmole/mg protein
Cannabinoid receptors; [9]
  HU-210 stimulated G-protein activation remaining on co-incubation with CB2 ligand: 23.3 fmole/mg protein
[3]
  water solubility: very poor water solubility
  stable dissolution in tested vehicles: achieved only with olive oil

## Cc1c(C(=O)c2cccc3ccccc23)c2cccc3c2n1C(CN1CCOCC1)CO3 (stereo not drawn) [WIN-55,212-2, [2,3-Dihydro-5-methyl-3-[(morpholinyl)methyl]pyrrolo-[1,2,3-de]-1,4-benzoxazin-yl]-(1-naphthalenyl)methanone]
G93A-SOD1 mice [2]; 5 mg/kg daily i.p.
  increase in survival interval versus vehicle: 8.8 days
G93A-SOD1 mice [2]; 5 mg/kg daily i.p., vehicle 23.7+/−1.7 days
  survival interval (symptom onset to sacrifice): 32.5 ± 3.6 days
[3]
  water solubility: very poor water solubility
  stable dissolution in tested vehicles: achieved only with olive oil

## (−)-cis-3-[2-Hydroxy-4-(1,1-dimethylheptyl)-phenyl]-trans-4-(3-hydroxypropyl)-cyclohexanol) [CP-55,940]
CB1 receptors
  Ki: ~0.5 nM

## N-[(1S)-endo-1,3,3-Trimethylbicyclo[2.2.1]heptan-2-yl]-5-(4-chloro-3-methylphenyl)-1-(4-ethoxybenzyl)-pyrazole-3-carboxamide [SR-144528]
CB1/CB2 receptors [4]
  % blockade of HU-210-induced G-protein activation: 49%
  HU-210 stimulated [35S]GTPγS binding remaining on co-incubation with antagonist: 29.5±6.4 fmole/mg protein
  net reduction of HU-210-induced G-protein activation: 27.9 fmole/mg protein
CB1/CB2 receptors [5]; WT-OE membranes, antagonist 3 μM
  net reduction of HU-210-induced G-protein activation: 15.6 fmoles/mg protein
CB1/CB2 receptors [5]; [10]
  % blockade of HU-210-induced G-protein activation: approximately 50%
  HU-210 stimulated [35S]GTPγS binding remaining on co-incubation with antagonist: 15.1±1.1 fmole/mg protein

— patent publication US20090124608A1, “CB2 Receptor Modulators In Neurodegenerative Diseases And Applications Of The Same” (priority 2006, published 2009)
